Experimental data: patent US5223169A, “Hydrolase surfactant systems and their use in laundering” (priority 1991, dated 1993)

Key:
Assay in all cases: pH-stat assay of triglyceride emulsion hydrolysis; critical oil-to-surfactant ratio
[1] = molecular target: T1, Enzyme Amano P (Burkholderia cepacia, UniProt P22088); format: biochemical, P. fluorescens
T1 construct: purchased Amano Co
Source text: (§1) To determine the critical ratio for any specific enzyme-surfactant combination, aliquots of an aqueous solution, each containing a determined (constant) amount of the enzyme which is effective in the absence of any surfactant to hydrolyze the triglycerides in an oily stain on a determined (constant) amount of a fabric soiled by a determined (constant) amount of a triglyceride oil, are mixed with a determined (constant) amount of a surfactant which is within the range of the amounts conventionally present in home laundry solutions, e.g., from about 0.2 to 1.5. mM, and which is effective to inhibit the hydrolyzing activity of the enzyme. To the aliquots are added a hydrolysis activator, e.g., trioctanoin, in increasing amounts and the hydrolyzing activity of the enzyme in the various solutions is determined.
(§2) The experiments determining enzyme activity, such as those set out in Tables IA and IB, were carried out as follows:
(§3) The desired amount of triglyceride was weighed into an appropriate size beaker, on a Mettler balance (model number AE163). The corresponding amount of surfactant was added to the triglyceride, from a previously prepared aqueous surfactant stock solution, and the triglyceride and surfactant mixed manually. The sample was then adjusted to the desired weight using doubly distilled H2 O. Emulsification of the sample was carried out, prior to assaying enzyme activity, with a probe sonicator (Braun-Sonic model 2000), on ice, for approx. 2 minutes.
(§4) (ii) Enzyme Activity Measurement:
(§5) This was achieved by monitoring the rate of acid liberation, from the enzymatic hydrolysis of the triglycerides in the emulsion. The assay was initiated by adding approx. 2 ppm lipase to 10 ml of the prepared emulsion. The acid liberated was monitored by autotitration, on a Radiometer pH-stat (model number ABU80) to an endpoint of a pH of 10. Initial rates were recorded for the first 5 minutes of the reaction, and the reaction rates reported as μmole H^+ titrated . min ^-1 mgE^-1. Occasionally enzyme activity is reported as % total oil hydrolyzed in 14 min. In these examples, the reaction was allowed to run for 14 min. and the amount of acid titrated recorded. The % total oil (triglyceride) hydrolyzed was then calculated by dividing the recorded value with the theoretically calculated value assuming three equivalents of oleic acid was produced for each triglyceride equivalent. All assays were run at ambient temperatures.

[2] = test system: Enzyme Amano 68S; format: biochemical, P. sp.; settings: for Critical Ratio / Enzyme Activity: surfactant conc.: SDS 1 mM
Source text: as §1, §2, §3, §4, §5

[3] = test system: enzyme from P. putida ATCC 53552 (lipase GC-1065); format: biochemical, Pseudomonas putida; settings: for Critical Ratio / Enzyme Activity: Surfonic JL80X 0.5 mM
Source text: as §1, §2, §3, §4, §5

[4] = Table III, trioctanoin, surfactant conc.: SDS 2 mM, C12 LAS 1 mM, Neodol 25-3S 2 mM, Neodol 25-9 0.5 mM, Surfonic JL80X 0.5 mM
[5] = Table Summary, second block of lines (corresponds to triolein Tables VI-IX)
[6] = Table VII, triolein, surfactant conc.: SDS 1 mM, others 0.5 mM
[7] = triolein emulsions, high conc.: SDS 10 mM, C12 LAS 5 mM, Neodol 25-9 5 mM, Neodol 25-3S 5 mM, Surfonic JL-80X 2.5 mM
[8] = Table IV, trioctanoin, C12 LAS 0.2 mM, Neodol 25-3S 0.5 mM, Neodol 25-9 0.5 mM, Surfonic JL80X 0.5 mM
[9] = Table VIII, triolein, C12 LAS 0.5 mM, Neodol 25-3S 0.5 mM, Neodol 25-9 0.5 mM, Surfonic JL80X 2.5 mM
[10] = Table II, trioctanoin, surfactant conc.: SDS 2 mM, C12 LAS 1 mM, Neodol 25-3S 2 mM, Neodol 25-9 0.5 mM, Triton X100 2 mM
[11] = Table VI, triolein, surfactant conc.: SDS 1 mM, C12 LAS 0.5 mM, Neodol 25-3S 1 mM, Neodol 25-9 0.5 mM

T1 sequence (P22088 45-364): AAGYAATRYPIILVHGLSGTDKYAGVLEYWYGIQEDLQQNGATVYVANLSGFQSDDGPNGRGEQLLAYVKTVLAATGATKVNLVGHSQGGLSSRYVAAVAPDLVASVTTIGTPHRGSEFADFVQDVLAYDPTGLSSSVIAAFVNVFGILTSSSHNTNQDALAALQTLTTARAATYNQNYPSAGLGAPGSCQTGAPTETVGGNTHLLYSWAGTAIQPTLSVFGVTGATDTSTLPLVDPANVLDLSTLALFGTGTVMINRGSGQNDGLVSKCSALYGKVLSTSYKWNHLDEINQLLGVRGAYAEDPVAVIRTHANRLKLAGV

## CCCCCCCCCCCCOS(=O)(=O)[O-].[Na+] [SDS, sodium dodecylsulfate]
[1]; [4]
  Critical Ratio: 1-5
  Enzyme Activity: 100 μmole H^+ released min^-1 mgE^
[1]; [5]
  critical ratio class, Amano P: 0 (means a critical ratio of 1.0-10)
[1]; [6]
  Critical Ratio: 5-10
  Enzyme Activity: 160 μmole H^+ released min^-1 mgE^
[1]; trioctanoin emulsions, high surfactant conc. as E43
  Specific Activity determined from initial rates, AMANO P, High: 200 μeq acid/min.mg
[1]; trioctanoin emulsions, lipase ~2 ppm, high conc.: SDS 10 mM, C12 LAS 5 mM, Neodol 25-9 5 mM, Neodol 25-3S 20 mM, Surfonic JL-80X 5 mM
  Critical Ratio, AMANO P, High: 5-10
[1]; trioctanoin emulsions, lipase ~2 ppm, low conc.: SDS 2 mM, C12 LAS 1 mM, Neodol 25-9 0.5 mM, Neodol 25-3S 2.0 mM, Surfonic JL-80X 0.5 mM
  Critical Ratio, AMANO P, Low: 1-5
[1]; trioctanoin emulsions, low surfactant conc. as E42
  Specific Activity determined from initial rates, AMANO P, Low: 100 μeq acid/min.mg
[1]; triolein emulsions, high conc. as E57
  Activity (specific hydrolysis activity from initial rates), AMANO P, High: 150 μeq acid/min./mg
[1]; [7]
  R, critical (minimum activating molar) ratio, AMANO P, High: 5-10
[1]; triolein emulsions, low conc. as E56
  Activity (specific hydrolysis activity from initial rates), AMANO P, Low: 160 μeq acid/min./mg
[1]; triolein emulsions, low conc.: SDS 1 mM, others 0.5 mM
  R, critical (minimum activating molar) ratio, AMANO P, Low: 5-10
[2]; [8]
  Critical Ratio: 0.1-0.5
  Enzyme Activity: 400 μmole H^+ released min^-1 mgE^
[2]; [5]
  critical ratio class, Amano 68S: 0 (means a critical ratio of 1.0-10)
[2]; [9]
  Critical Ratio: 1-5
  Enzyme Activity: 200 μmole H^+ released min^-1 mgE^
[2]; trioctanoin emulsions, high surfactant conc. as E45
  Specific Activity determined from initial rates, AMANO 68S, High: 1200 μeq acid/min.mg
[2]; trioctanoin emulsions, lipase ~2 ppm, high conc.: SDS 10 mM, C12 LAS 2 mM, Neodol 25-9 5 mM, Neodol 25-3S 10 mM, Surfonic JL-80X 5 mM
  Critical Ratio, AMANO 68S, High: 10-15
[2]; trioctanoin emulsions, lipase ~2 ppm, low conc.: SDS 1 mM, C12 LAS 0.2 mM, Neodol 25-9 0.5 mM, Neodol 25-3S 0.5 mM, Surfonic JL-80X 0.5 mM
  Critical Ratio, AMANO 68S, Low: 0.1-0.5
[2]; trioctanoin emulsions, low surfactant conc. as E44
  Specific Activity determined from initial rates, AMANO 68S, Low: 400 μeq acid/min.mg
[2]; triolein emulsions, high conc. as E59
  Activity (specific hydrolysis activity from initial rates), AMANO 68S, High: 175 μeq acid/min./mg
[2]; triolein emulsions, high conc.: SDS 10 mM, C12 LAS 5 mM, Neodol 25-9 5 mM, Neodol 25-3S 5 mM, Surfonic JL-80X 2.5 mm
  R, critical (minimum activating molar) ratio, AMANO 68S, High: 5-10
[2]; triolein emulsions, low conc. as E58
  Activity (specific hydrolysis activity from initial rates), AMANO 68S, Low: 200 μeq acid/min./mg
[2]; triolein emulsions, low conc.: SDS 1 mM, C12 LAS 0.5 mM, Neodol 25-9 0.5 mM, Neodol 25-3S 0.5 mM, Surfonic JL-80X 2.5 mM
  R, critical (minimum activating molar) ratio, AMANO 68S, Low: 1-5
[3]; [10]
  Critical Ratio: 0.5-5.0
  Enzyme Activity: 325 μmole H^+ released min^-1 mgE^
[3]; [5]
  critical ratio class, enzyme From ATCC 53552: 0 (means a critical ratio of 1.0-10)
[3]; [11]
  Critical Ratio: 5-10
  Enzyme Activity: 60 μmole H^+ released min^-1 mgE^
[3]; trioctanoin emulsions, high surfactant conc. as E41
  Specific Activity determined from initial rates, GC-1065, High: 450 μeq acid/min.mg
[3]; trioctanoin emulsions, lipase ~2 ppm, high surfactant conc.: SDS 10 mM, C12 LAS 5 mM, Neodol 25-9 5 mM, Neodol 25-3S 10 mM, Surfonic JL-80X 5 mM, Triton X-100 10 mM, C16 DAPS 10 mM
  Critical Ratio, GC-1065, High: 1-3
[3]; trioctanoin emulsions, lipase ~2 ppm, low surfactant conc.: SDS 2 mM, C12 LAS 1 mM, Neodol 25-9 0.5 mM, Neodol 25-3S 2 mM, Surfonic JL-80X 0.5 mM, Triton X-100 2 mM, C16 DAPS 0.5 mM
  Critical Ratio, GC-1065, Low: 0.5-5.0
[3]; trioctanoin emulsions, low surfactant conc. as E40
  Specific Activity determined from initial rates, GC-1065, Low: 325 μeq acid/min.mg
[3]; triolein emulsions, high conc. as E55
  Activity (specific hydrolysis activity from initial rates), GC-1065, High: 50 μeq acid/min./mg
[3]; [7]
  R, critical (minimum activating molar) ratio, GC-1065, High: 1-5
[3]; triolein emulsions, low conc. as E54
  Activity (specific hydrolysis activity from initial rates), GC-1065, Low: 60 μeq acid/min./mg
[3]; triolein emulsions, low conc.: SDS 1 mM, C12 LAS 0.5 mM, Neodol 25-9 0.5 mM, Neodol 25-3S 1 mM, Surfonic JL-80X 0.5 mM
  R, critical (minimum activating molar) ratio, GC-1065, Low: 5-10
